Results published in the Biogen ADME set (Fang et al. 2023).
Converted amounts (≈) assume the structure as drawn.

Details: for aqueous solubility: pH 6.8

Row | MDR1-MDCK efflux ratio | intrinsic clearance, human liver microsomes | intrinsic clearance, rat liver microsomes | aqueous solubility | fraction unbound, human plasma | fraction unbound, rat plasma | Compound
1 | 2.39 | – | – | – | – | – | CC[C@@H]1CN(c2ccc(C(=O)Nc3cn4cc(C)nc4cn3)c(F)c2)CCN1
2 | – | 2.83 L/h/kg | 41.2 L/h/kg | – | – | – | CC(C)(C)OC(=O)N1CCCN1C(=O)c1cc2cc(Cl)ccc2[nH]1
3 | 7.25 | 3.35 L/h/kg | 45.9 L/h/kg | – | – | – | CC(C)Cc1ccccc1CNCc1ccc2[nH]cnc2c1
4 | – | – | – | 0.00034 mg/mL (≈ 1.07 µM) | – | – | CCOc1ccccc1NC(=O)C(=O)NCc1ccccc1F
5 | 1.33 | 0.688 L/h/kg | 146 L/h/kg | 0.0524 mg/mL (≈ 196 µM) | – | – | N#Cc1cccnc1NCCc1cn2c(n1)CCCC2
6 | 6.01 | 6.35 L/h/kg | 52.5 L/h/kg | – | – | – | COc1ccc(Cl)cc1-c1cccc(C(=O)NCCN2CCCC2=O)c1
7 | – | 7.82 L/h/kg | 16.3 L/h/kg | 0.0012 mg/mL (≈ 3.72 µM) | – | – | CC(=O)N1CCc2cc(Nc3nccc(C(F)(F)F)n3)ccc21
8 | – | 5.45 L/h/kg | 21.9 L/h/kg | – | – | – | CN1CCC(CNc2ccc3ncc(-c4cccc(OC(F)(F)F)c4)n3n2)CC1
9 | – | 11.7 L/h/kg | 221 L/h/kg | – | – | – | CNC(=O)[C@H]1O[C@@H](n2cnc3c(NCc4cccc(I)c4)ncnc32)[C@H](O)[C@@H]1O
10 | – | 0.46 L/h/kg | 4.97 L/h/kg | – | – | – | O=C(NCc1cccc2c1OCCCO2)c1cscn1
11 | 0.671 | 1.07 L/h/kg | 16.9 L/h/kg | – | – | – | COc1cccc(Cc2cnc(N)s2)c1
12 | 1.45 | 0.724 L/h/kg | 1.7 L/h/kg | 0.00135 mg/mL (≈ 3.72 µM) | – | – | Cc1nnc(NC(=O)c2ccccc2-c2ccc(C(F)(F)F)cc2)s1
13 | – | 0.814 L/h/kg | 14.4 L/h/kg | – | – | – | O=C(NCCN1CCc2ccccc2C1=O)c1ccncc1
14 | 0.969 | – | – | 0.00038 mg/mL (≈ 1.07 µM) | – | – | O=c1c2cc(OCc3ccc(Cl)cc3)ccc2nc2n1CCCCC2
15 | 10 | 3.51 L/h/kg | 27.6 L/h/kg | 0.0376 mg/mL (≈ 97.7 µM) | – | – | O=C(NCCNC(=O)c1cc(-c2ccccc2)nc2ccccc12)c1ccco1
16 | 0.649 | 1.88 L/h/kg | 21.2 L/h/kg | 0.00161 mg/mL (≈ 4.92 µM) | – | – | Cc1cc(C)n(-c2cccc(NC(=O)c3ccc(F)c(F)c3)c2)n1

Row | MDR1-MDCK efflux ratio | intrinsic clearance, human liver microsomes | intrinsic clearance, rat liver microsomes | aqueous solubility | fraction unbound, human plasma | fraction unbound, rat plasma | Compound
17 | 43.2 | ≤ 0.284 L/h/kg | 3.42 L/h/kg | – | – | – | c1ccc(Nc2nc(N3CCNCC3)nc(N3CCOCC3)n2)cc1
18 | 2.06 | 0.367 L/h/kg | 12.7 L/h/kg | 0.0443 mg/mL (≈ 137 µM) | – | – | Cc1ccccc1CC(=O)N1CCN(C(=O)c2ccccc2)CC1
19 | 60.3 | 7.84 L/h/kg | 31.5 L/h/kg | 0.0492 mg/mL (≈ 85.9 µM) | – | – | CCN(c1cc(-c2ccc(CN3CCOCC3)cc2)cc(C(=O)NCc2c(C)cc(C)nc2O)c1C)C1CCOCC1
20 | 0.622 | 3.96 L/h/kg | 19 L/h/kg | – | – | – | CC(=O)c1cc(Br)cc(F)c1OCc1ccccn1
21 | – | 1.32 L/h/kg | 9.23 L/h/kg | – | 0.0987 | 0.0447 | COc1cc2ncnc(Nc3cccc(O)c3)c2cc1OC
22 | 2.87 | 1.92 L/h/kg | 12.6 L/h/kg | 0.0437 mg/mL (≈ 140 µM) | – | – | CC(=O)N(c1ccc(C)cc1)c1nc(Cn2ccnc2)cs1
23 | – | – | – | 0.00033 mg/mL (≈ 1.06 µM) | – | – | Cc1ccc(/C(N)=N/OC(=O)c2ccc3c(c2)OCCO3)cc1
24 | 0.865 | 7.86 L/h/kg | 17.4 L/h/kg | – | – | – | CCCc1cc(C(=O)Nc2ccc(-c3nnc(C)[nH]3)cc2)no1
25 | – | – | – | 0.00224 mg/mL (≈ 6.76 µM) | – | – | C=CCN(c1ccc(C(=O)OC)cc1)S(=O)(=O)c1ccccc1
26 | 1.32 | 16.8 L/h/kg | 58.9 L/h/kg | – | 0.0676 | 0.034 | CNC(=O)C1(Cc2ccc(-c3cccnc3)cc2)CCN(Cc2cccc(F)c2)C1 (stereo not given)
27 | – | 3.45 L/h/kg | 56.4 L/h/kg | 0.00301 mg/mL (≈ 8.42 µM) | – | – | COc1cc(-c2ccc(C)s2)cc2c1OCCN(c1noc(C)n1)C2
28 | 23.1 | ≤ 0.284 L/h/kg | 0.994 L/h/kg | – | – | – | Cc1nnc(COc2cccc(-n3ccnc3)c2)n1C1CC1
29 | – | 0.63 L/h/kg | 8.06 L/h/kg | 0.00553 mg/mL (≈ 14.8 µM) | – | – | CN(Cc1ccc(-c2ccc(Br)cc2)o1)C(=O)c1cnn(C)c1
30 | 1.12 | 1.08 L/h/kg | 17.1 L/h/kg | – | – | – | COC1(c2nc(Cc3ccccc3)no2)CCN(Cc2cnc(C)o2)CC1
31 | 19.4 | ≤ 0.284 L/h/kg | ≤ 0.64 L/h/kg | – | – | – | NCCOc1cccc(CC(=O)N2CCC(F)(F)CC2)c1

The remaining lines, values behind:

Row | Compound | MDR1-MDCK efflux ratio | intrinsic clearance, human liver microsomes | intrinsic clearance, rat liver microsomes | aqueous solubility | fraction unbound, human plasma | fraction unbound, rat plasma
32 | CCN(Cc1cnn(C(C)C)c1)C(=O)NCCC(C)(C)OC | 17.2 | 0.339 L/h/kg | 9.76 L/h/kg | – | – | –
33 | Cc1ccc(-c2cnc3ccccc3n2)cc1N | – | 15.4 L/h/kg | 12.2 L/h/kg | – | – | –
34 | Cc1nn(-c2ccccc2)c(C)c1CN | – | – | – | 0.0202 mg/mL (≈ 101 µM) | – | –
35 | CCCS(=O)(=O)NC1CCN(Cc2ccc(C)c(OC)c2)CC1 | 1.43 | 0.988 L/h/kg | 47.9 L/h/kg | – | – | –
36 | COC(=O)CCCNC(=O)CN1CCC(C(=O)c2ccc(C)cc2C)CC1 | 3.29 | 38.7 L/h/kg | 114 L/h/kg | – | – | –
37 | NC(=O)CN1CCC(CCc2ccccc2)CC1 | – | ≤ 0.284 L/h/kg | 27.7 L/h/kg | 0.0413 mg/mL (≈ 168 µM) | – | –
38 | COc1ccc(OC)c(Cn2cnc3cn(C)nc3c2=O)c1 | 2.56 | ≤ 0.284 L/h/kg | 3.05 L/h/kg | – | – | –
39 | Cc1ccc(-c2nc(-c3ccncc3)n[nH]2)cc1 | – | 1.62 L/h/kg | 16.1 L/h/kg | 0.02 mg/mL (≈ 84.7 µM) | – | –
40 | C1CCN(c2nc(NC3CC3)nc(N3CCCCC3)n2)CC1 | 0.301 | – | – | 0.00062 mg/mL (≈ 2.05 µM) | – | –
41 | O=S1(=O)CCN(C2CCN(CC(F)(F)F)CC2)CC1 | 0.765 | ≤ 0.284 L/h/kg | 1.21 L/h/kg | – | – | –
42 | CCn1ncc(CN2CCC(c3nc(N(C)C)ncc3-c3ccc(OC)cc3)CC2)c1C | 15.6 | 13.6 L/h/kg | 49.9 L/h/kg | 0.0526 mg/mL (≈ 121 µM) | – | –
43 | CCc1c2c(nc3ccc(O)cc13)-c1cc3c(c(=O)n1C2)COC(=O)[C@]3(O)CC | 50.8 | 1.1 L/h/kg | ≤ 0.64 L/h/kg | – | – | –
44 | CC#CC(=O)N1CCC[C@@H]1c1nc(-c2ccc(C(=O)Nc3ccccn3)cc2)c2c(N)nccn12 | 37.1 | 4.43 L/h/kg | 16.5 L/h/kg | – | 0.0946 | –
45 | CCOc1ccc(Nc2nc(-c3c(C)nc4ccccn34)cs2)cc1 | 0.134 | 9.56 L/h/kg | 27.1 L/h/kg | 0.045 mg/mL (≈ 128 µM) | – | –
46 | Cc1cc(C(=O)Nc2ccc(C)c(C)c2)n(-c2ccccc2)n1 | 0.392 | 5.82 L/h/kg | 123 L/h/kg | 0.00393 mg/mL (≈ 12.9 µM) | – | –
47 | Cc1cc2nc(CCC(=O)N3CCC(c4ccc(C(=O)N(C)C)c(N)n4)CC3)[nH]c2cc1C | 36.2 | 6.41 L/h/kg | 19.2 L/h/kg | 0.0397 mg/mL (≈ 88.4 µM) | – | –
48 | Cc1ccc2c(c1)c1nc3ccccc3nc1n2CC(N)=O | 0.833 | – | – | 0.00016 mg/mL (≈ 0.551 µM) | – | –
49 | Cc1nc2cc(-c3nccn3C)nn2c(NCc2cccnc2)c1C | 28.5 | 0.882 L/h/kg | 22.7 L/h/kg | 0.0557 mg/mL (≈ 167 µM) | – | –
50 | c1ccc2c(c1)CN(c1cnc3ccccc3n1)CCN2 | 0.54 | 5.64 L/h/kg | 37.7 L/h/kg | 0.0251 mg/mL (≈ 90.8 µM) | – | –
51 | COc1cc(Nc2c(C#N)cnc3cc(OCCCN4CCN(C)CC4)c(OC)cc23)c(Cl)cc1Cl | 123 | – | – | – | – | –
52 | COCCN(C)c1ccc(CN2CCOC3(CCCC3)C2)cn1 | 0.619 | 2.31 L/h/kg | 38 L/h/kg | – | – | –
53 | COCCNc1c(C)c(C)nc2cc(-c3nccn3C)nn12 | 1.53 | 1.26 L/h/kg | 4.78 L/h/kg | – | – | –
54 | Cc1cccc2c1Oc1nc(-c3ccccc3)[nH]c(=S)c1C2 | – | – | – | 0.00033 mg/mL (≈ 1.08 µM) | – | –
55 | Cc1cc(C)c(-c2csc(CC(N)=O)n2)cc1C | 0.831 | – | – | – | – | –
56 | Cn1ncc2c(Oc3cccc(Oc4ccccn4)c3)ncnc21 | 0.672 | 0.608 L/h/kg | 22.1 L/h/kg | 0.0398 mg/mL (≈ 125 µM) | – | –
57 | Cn1nccc1CC1CCN(C2CCCC2)CC1 | 0.94 | ≤ 0.284 L/h/kg | 15.5 L/h/kg | 0.0262 mg/mL (≈ 106 µM) | – | –
58 | COCC1(c2nc(-c3ccncc3)nn2Cc2cccc(Cl)c2)CC1 | 0.731 | 20.4 L/h/kg | 85.5 L/h/kg | 0.028 mg/mL (≈ 79 µM) | – | –
59 | CCC(CC)NC(=O)c1cc(C)nc2onc(C)c12 | 1.34 | ≤ 0.284 L/h/kg | ≤ 0.64 L/h/kg | 0.0455 mg/mL (≈ 174 µM) | – | –
60 | O=C(O)c1ccc(Nc2ncc3c(n2)-c2ccc(Cl)cc2C(c2c(F)cccc2F)=NC3)cc1 | 3.32 | ≤ 0.284 L/h/kg | 6.12 L/h/kg | 0.0471 mg/mL (≈ 98.8 µM) | – | –
61 | Cc1n[nH]c(C)c1CCCN(C)c1cncc(C(=O)N(C)C)n1 | 93.7 | 5.24 L/h/kg | 31.7 L/h/kg | – | – | –
